In one assay the target is human CB2 receptor (Homo sapiens (Human), UniProt P34972). In words: [35S]GTPγS-binding assay, functional activity at the human CB2 receptor. Type of assay: biochemical. As to the method: Functional activity of compounds of the invention toward the cannabinoid receptors was determined by stimulation of [^35S]-GTPγS binding using membranes from HEK-293 cells expressing the hCB1 receptor and membranes expressing the hCB2 receptor derived from either Sf9 (PerkinElmer) or from HEK-293 cells. Activities were compared to that of the known cannabinoid full agonist CP55940 (Alexis). The purpose of this experiment is to determine the potency of the compounds of the invention as agonists or antagonists toward each of the receptor tested.
Sequence of human CB2 receptor (P34972 whole entry): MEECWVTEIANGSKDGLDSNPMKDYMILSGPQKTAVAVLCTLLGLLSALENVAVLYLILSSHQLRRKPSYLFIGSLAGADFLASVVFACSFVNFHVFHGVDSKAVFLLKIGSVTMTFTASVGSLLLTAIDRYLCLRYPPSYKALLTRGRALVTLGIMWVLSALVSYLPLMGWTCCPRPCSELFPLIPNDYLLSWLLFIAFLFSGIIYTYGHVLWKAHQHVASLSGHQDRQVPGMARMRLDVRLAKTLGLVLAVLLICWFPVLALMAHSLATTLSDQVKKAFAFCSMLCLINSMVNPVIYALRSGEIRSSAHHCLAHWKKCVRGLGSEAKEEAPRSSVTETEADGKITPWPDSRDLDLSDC
[^35]-GTPγS binding reactions were performed at 30° C. in 96-well plates containing 5-10 μg membrane protein suspended in 0.1 ml binding buffer (20 mM HEPES-NaOH, pH 7.4, 5 mM MgCl2, 100 mM NaCt, 0.2% (w/v) bovine serum albumin) supplemented with 50 μM GDP and 0.06 nM-10 μM of the compound being tested. Binding was initiated by the addition of [^35S]GTPγS (0.3 nM final concentration). Incubations were performed for 90 minutes and were terminated by filtration on GF/C filter plates (PerkinElmer). Filters were washed ten times with ice-cold wash buffer (20 mM HEPES-NaOH, pH 7.4, 10 mM sodium pyrophosphate). Non-specific binding was measured in the presence of 15 μM GTPγS.
Assays were performed in duplicates. Data was analyzed by plotting on the X axis the log concentration against percent of specific [^35S]GTPγS binding out of basal [^35S]GTPγS binding on the Y axis, non-linear regression is then performed using GraphPad Prism, version 3.0 (GraphPad, San Diego, Calif.) to calculate the EC50 and Emax of the compound. The EC50 value represents the concentration at which there is 50% [^35S]GTPγS binding and the Emax value the upper plateau of the curve.
CP55940 is a full agonist of the human and rat CB2 receptors. […] Full or partial agonism at the receptor was determined relative to the Emax value of CP55940.

In the next assay the test system is female BALB/c mice. Briefly: Dextran Sulfate Salt (DSS)-induced acute colitis. It counts as in vivo, mouse. The settings on record: for % Survival / Clinical score / Percentage change in body weight: i.p. The text has this:
In order to test the activity of compounds of the invention in an animal model of inflammatory bowel disease, female BALB/c mice 9-12 week old (Harlan, Israel) were used for Dextran Sulfate Salt (DSS)-induced acute colitis studies. Mice (ten per treatment group) were provided with a solution of tap water containing 5% DSS (MW. 36000-50000; MP Biomedicals, LLC) ad libitum over an 8 day period. The DSS solution was replenished every other day and switched to tap water at day 8. Body weight was measured daily. The clinical scores combined both macroscopic (diarrhea, body weight, mortality) as well as microscopic (pathological) scores. Diarrhea score in the studies for each animal represented the daily summary of stool consistency (scored as: 0, normal; 1, soft but still formed; 2, very soft; 3, diarrhea) and the presence of blood in stool (scored: 0, None; 1, visible blood traces in stool; 2, signs of blood; 3, rectal bleeding). At the end of experiment animals were euthanized and their colons are examined for signs of pathological damage. The pathological scores, colon length and weight were determined from the cecum to the anus (scored: 0, normal; 1, slight inflammation; 2, moderate inflammation and/or edema; 3, heavy inflammation and/or ulceration and/or edema).
Two compounds were tested in DSS-induced colitis in mice, compounds 4 and 58. […] Results are expressed as mean ± SEM for each treatment group and the differences among those groups are analyzed by T-test. Two crosshatches indicate a p value below 0.01 and three indicate a p value below 0.001. Asterisks denote statistical significant weight loss relative to animal weight in the beginning of the experiment.
Alternatively, compound 58 (30 mg/kg) was administered orally from the first day of DSS administration (day 1) until the end of the experiment (day 10).

Assay [1] deals with Male Sprague Dawley rats. Briefly: Thermal analgesic activity in CFA-induced inflammatory acute pain (Plantar test). Type of assay: in vivo, rat. The settings on record: one hour post daily administration, third day of treatment. As to the method:
The thermal analgesic effect induced by compounds of the present invention on inflammatory acute pain was assessed. Inflammatory pain and paw edema were induced by intraplantar injection of 50% Complete Freund's Adjuvant (CFA) suspension in the animal hind paw.
Male Sprague Dawley rats (average body weight 200 g, Harlan, Israel) were transiently sedated by placement on dry ice for the duration of the injections. Rats were injected subcutaneously, in the subplantar region of one (right) paw with 0.15 ml of 50% w/v CFA in sterile saline. […] Test compounds were administered i.p. at initial single dose of 10-60 mg/kg (depending on the test compound), and volume dose of 5 ml/kg, 24 hours post CFA injection. Vehicle and Celecoxib treated animals were used as controls. Each treatment group comprised at least six animals.
Prior to, 48 hours post induction of inflammatory pain and one hour after daily drug administration, the animals reaction to pain stimuli was tested by thermal stimulus. The thermal analgesia was assessed using a Plantar test (Ugo Basile). At the end of the study, animals were euthanized.
Results, expressed as percent of baseline value (% reversal) or withdrawal latency, are depicted in FIGS. 9 and 10. […] Results are expressed as mean±SEM for each treatment group and the differences among those groups are analyzed by T-test. […]

Assay [2] concerns Male Sprague Dawley rats. Briefly: Chronic inflammatory pain, intra-articular CFA in knee, weight bearing. It counts as in vivo, rat.
Where [3] appears, read: Cell line C2-4, Emax of compound divided by Emax of CP55940.
[4] abbreviates: Cell line C2-4, upper plateau of [35S]GTPγS binding curve.
Where [5] appears, read: read-out: % Activity (relative to CP55,940).
[6] abbreviates: Cell line C2-4, Emax of compound divided by Emax of CP55940, read-out: % Activity (relative to CP55,940).
The mark [7] stands for this setting: Cell line C2-4, upper plateau of [35S]GTPγS binding curve, read-out: Emax (%).

Like-named read-outs stand apart in the source and are kept apart here.

On to “4-(Bicyclo[2.2.1]hept-2-ylamino)-N-cyclopropylmethyl-2-trifluoromethyl-benzenesulfonamide [Compound 58]”, for which the “% Activity (relative to CP55,940)” value at human CB2 receptor (setting [3]) turned out to be 40%. At human CB2 receptor (setting [4]), the “Emax (%)” value is 29%. Further, in the assay with female BALB/c mice (10 mg/kg), the “% Survival” value is 100%, the Clinical score was 4.33 ± 0.22 and the “Percentage change in body weight” value is −12.9 ± 2.6 %. The mortality result in the assay with female BALB/c mice (30 mg/kg orally, day 1 to day 10) is reported as “not observed”. Besides, in the assay on female BALB/c mice (30 mg/kg orally, day 1 to day 10, from day 8 until end of experiment), the “clinical score over time” value is reported as “statistical significant amelioration”. In addition, the pathological score in the assay with female BALB/c mice (30 mg/kg orally, day 1 to day 10, not statistically significant versus vehicle) was 1.9±0.5. In addition, in the assay with female BALB/c mice (30 mg/kg), the “% Survival” value worked out at 100%, the Clinical score was 4.58 ± 0.2 and the “Percentage change in body weight” value is given as −13.9 ± 2.3 %. Moreover, the “efficacy in DSS-induced colitis (weight loss, clinical signs or gross pathology)” value in the assay on female BALB/c mice (administered intraperitoneally) was “modest efficacy”. In addition, the “reversal of thermal pain threshold (withdrawal latency)” value in the assay with Male Sprague Dawley rats [1] (30 mg/kg i.p.) is given as “reversed the pain threshold”.
At human CB2 receptor, `CCCCCCC(C)(C)c1ccc([C@@H]2C[C@H](O)CC[C@H]2CCCO)c(O)c1` [CP55940, reference compound] displayed an Emax of 50 to 70%.
On to `O=S(=O)(NCC1CC1)c1ccc(Nc2ccc(Cl)cc2Cl)cc1C(F)(F)F` [Compound 3, N-Cyclopropylmethyl-4-(2,4-dichloro-phenylamino)-2-trifluoromethyl-benzenesulfonamide], for which the results for the Emax at human CB2 receptor and at human CB2 receptor (setting [5]) were 30% and 46%, respectively.
Regarding `O=S(=O)(NCC1CCCO1)c1ccc(NC2CC3CCC2C3)cc1C(F)(F)F` (stereo not drawn) [Compound 26, 4-(Bicyclo[2.2.1]hept-2-ylamino)-N-(tetrahydro-furan-2-ylmethyl)-2-trifluoromethyl-benzenesulfonamide], the Emax at human CB2 receptor (setting [6]) turned out to be 35%; on human CB2 receptor (setting [7]), 19%.
On to `O=S(=O)(NCC1CCOCC1)c1ccc(Nc2ccc(Cl)cc2Cl)cc1C(F)(F)F` [Compound 35, 4-(2,4-Dichloro-phenylamino)-N-(tetrahydro-pyran-4-ylmethyl)-2-trifluoromethyl-benzenesulfonamide], for which the “reversal of the CFA induced hypersensitivity (weight bearing)” value with Male Sprague Dawley rats [2] (15 mg/kg, b.i.d, three days of administration) is recorded as “significant reversal”. In addition, the figures for the Emax at human CB2 receptor and on human CB2 receptor (setting [5]) were 19% and 35%, respectively.
On to `O=S(=O)(NCC1CCOCC1)c1ccc(NC2CC3CCC2C3)cc1C(F)(F)F` (stereo not drawn) [Compound 41, 4-(Bicyclo[2.2.1]hept-2-ylamino)-N-(tetrahydro-pyran-4-ylmethyl)-2-trifluoromethyl-benzenesulfonamide], for which the “analgesic effect (% reversal)” value in the assay with Male Sprague Dawley rats [2] (15 mg/kg b.i.d., day 1 and 2 post administration) stood at 30%. Moreover, the Emax turned out to be 36% on human CB2 receptor (setting [6]) and 26% at human CB2 receptor (setting [7]).
In the case of `COc1ccc(Nc2ccc(S(=O)(=O)NCC3CC3)c(C(F)(F)F)c2)c(OC)c1` [Compound 44, N-cyclopropylmethyl-4-(2,4-dimethoxy-phenylamino)-2-trifluoromethyl-benzenesulfonamide], the Emax on human CB2 receptor was found to be 5%; at human CB2 receptor (setting [5]) it was 9.8%.
For the compound `CC(C)(NS(=O)(=O)c1ccc(NC2CC3CCC2C3)cc1C(F)(F)F)C1CC1` (stereo not drawn) [Compound 74, 4-(Bicyclo[2.2.1]hept-2-ylamino)-N-(1-cyclopropyl-1-methyl-ethyl)-2-trifluoromethyl-benzenesulfonamide], the figures for the Emax at human CB2 receptor and at human CB2 receptor (setting [5]) were 30% and 45%, respectively.
For the compound `O=S(=O)(NCC1CC1)c1ccc(NC2CCCCCC2)cc1C(F)(F)F` [Compound 87, 4-Cycloheptylamino-N-cyclopropylmethyl-2-trifluoromethyl-benzenesulfonamide], the Emax on human CB2 receptor was determined as 21%; at human CB2 receptor (setting [5]), 29%.
As for `O=S(=O)(NCC1CC1)c1ccc(NC2CCCCCCC2)cc1C(F)(F)F` [Compound 88, 4-Cyclooctylamino-N-cyclopropylmethyl-2-trifluoromethyl-benzenesulfonamide], the Emax at human CB2 receptor (setting [6]) was determined as 9.8%. For the same compound, on human CB2 receptor (setting [4]), the “Emax (%)” value amounted to 5%.
As for `O=S(=O)(NCC1CC1)c1ccc(NN2CCCCCC2)cc1C(F)(F)F` [Compound 105, 4-(Azepan-1-ylamino)-N-cyclopropylmethyl-2-trifluoromethyl-benzenesulfonamide], the Emax at human CB2 receptor is 34%; on human CB2 receptor (setting [5]) it was 43%.
On to `CC(C)(NS(=O)(=O)c1ccc(NC2CCCCC2)cc1C(F)(F)F)C1CC1` [Compound 108, 4-Cyclohexylamino-N-(1-cyclopropyl-1-methyl-ethyl)-2-trifluoromethyl-benzenesulfonamide], for which, on human CB2 receptor (setting [6]), the Emax amounted to 49.3%. For the same compound, the “Emax (%)” value at human CB2 receptor (setting [4]) is 39%.
Turning to “N-Cyclopropylmethyl-4-(piperidin-1-ylamino)-2-trifluoromethyl-benzenesulfonamide [Compound 94]”, on human CB2 receptor (setting [3]), the “% Activity (relative to CP55,940)” value turned out to be 30%. Further, the “Emax (%)” value on human CB2 receptor (setting [4]) turned out to be 20%. The “reversal of thermal pain threshold (percent of baseline value, % reversal)” value in the assay with Male Sprague Dawley rats [1] (60 mg/kg i.p.) is on record as “reversed the pain threshold”.

Source of the values: patent US9422235B2, “Sulfonamide derivatives with therapeutic indications” (Pharmos Corporation, priority 2006, dated 2016).
